Test results reported in US20230365592A1 (Agios Pharmaceuticals, Inc., priority 2022, published 2023).

Molecular target: T1, human PAH with the R408W mutation (Homo sapiens, UniProt P00439, R408W)
T1 construct: expressed in transfected cells
T1 sequence (P00439 1-452 R408W): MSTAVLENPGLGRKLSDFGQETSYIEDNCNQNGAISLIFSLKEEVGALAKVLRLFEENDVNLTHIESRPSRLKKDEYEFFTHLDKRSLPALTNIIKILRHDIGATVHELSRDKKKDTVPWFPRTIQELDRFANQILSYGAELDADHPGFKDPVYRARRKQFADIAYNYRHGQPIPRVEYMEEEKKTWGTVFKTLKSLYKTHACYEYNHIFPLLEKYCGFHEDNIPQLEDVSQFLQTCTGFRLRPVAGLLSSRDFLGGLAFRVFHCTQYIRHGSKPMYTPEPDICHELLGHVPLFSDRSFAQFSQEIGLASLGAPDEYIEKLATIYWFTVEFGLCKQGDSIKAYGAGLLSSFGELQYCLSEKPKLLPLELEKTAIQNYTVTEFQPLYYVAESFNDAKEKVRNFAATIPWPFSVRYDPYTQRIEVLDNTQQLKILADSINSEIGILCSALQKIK
Test: Cell Based Phenylalanine Flux Assay;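 further: after compound treatment, cells received sepiapterin plus isotope-labelled Phenylalanine for 4 hours, then labelled Tyrosine in the medium was quantified, 10-point 2-fold dilution series run in duplicate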
Conditions: A375 cells expressing human R408W PAH; 24 hrs compound incubation; 13C-Tyrosine by LC-MS; average where tested multiple times; read-out: AC50

Row | SMILES | AC50
1 | Cc1nn(C)cc1-c1nnc(C(=O)N2CCc3[nH]cnc3[C@@H]2c2cc3cccc(C(F)F)n3n2)o1 [Example 1583, (R)-(4-(7-(difluoromethyl)pyrazolo[1,5-a]pyridin-2-yl)-6,7-dihydro-1H-imidazo[4,5-c]pyridin-5(4H)-yl)(5-(1,3-dimethyl-1H-pyrazol-4-yl)-1,3,4-oxadiazol-2-yl)methanone] | > 5 µM
2 | Cc1cnn(C)c1-c1nnc(C(=O)N2CCc3[nH]cnc3[C@H]2c2cc3cccc(C(F)F)n3n2)o1 [Example 1584, (S)-(4-(7-(difluoromethyl)pyrazolo[1,5-a]pyridin-2-yl)-6,7-dihydro-1H-imidazo[4,5-c]pyridin-5(4H)-yl)(5-(1,4-dimethyl-1H-pyrazol-5-yl)-1,3,4-oxadiazol-2-yl)methanone] | 0.5 to 1 µM
3 | Cc1cnn(C)c1-c1nnc(C(=O)N2CCc3[nH]cnc3[C@@H]2c2cc3cccc(C(F)F)n3n2)o1 [Example 1585, (R)-(4-(7-(difluoromethyl)pyrazolo[1,5-a]pyridin-2-yl)-6,7-dihydro-1H-imidazo[4,5-c]pyridin-5(4H)-yl)(5-(1,4-dimethyl-1H-pyrazol-5-yl)-1,3,4-oxadiazol-2-yl)methanone] | > 5 µM
4 | Cc1cccn2nc([C@H]3c4nc[nH]c4CCN3c3nnc(C4CC4)o3)cc12 [Example 1588, (R)-2-cyclopropyl-5-(4-(4-methylpyrazolo[1,5-a]pyridin-2-yl)-6,7-dihydro-1H-imidazo[4,5-c]pyridin-5(4H)-yl)-1,3,4-oxadiazole] | > 5 µM
5 | Cc1cccn2nc([C@@H]3c4nc[nH]c4CCN3c3nnc(C4CC4)o3)cc12 [Example 1589, (S)-2-cyclopropyl-5-(4-(4-methylpyrazolo[1,5-a]pyridin-2-yl)-6,7-dihydro-1H-imidazo[4,5-c]pyridin-5(4H)-yl)-1,3,4-oxadiazole] | 0.5 to 1 µM
6 | c1cnc(N2CCc3[nH]cnc3[C@@H]2c2cc3ccccn3n2)nc1 [Example 1593, (R)-4-(pyrazolo[1,5-a]pyridin-2-yl)-5-(pyrimidin-2-yl)-4,5,6,7-tetrahydro-1H-imidazo[4,5-c]pyridine] | 1 to 5 µM
7 | Cc1cccc(-c2nnc(C(=O)N3CCc4[nH]cnc4[C@H]3c3cc4cccc(C(F)F)n4n3)o2)n1 [Example 1594, (S)-(4-(7-(difluoromethyl)pyrazolo[1,5-a]pyridin-2-yl)-6,7-dihydro-1H-imidazo[4,5-c]pyridin-5(4H)-yl)(5-(6-methylpyridin-2-yl)-1,3,4-oxadiazol-2-yl)methanone] | < 0.5 µM
8 | Cc1cccc(-c2nnc(C(=O)N3CCc4[nH]cnc4[C@@H]3c3cc4cccc(C(F)F)n4n3)o2)n1 [Example 1595, (R)-(4-(7-(difluoromethyl)pyrazolo[1,5-a]pyridin-2-yl)-6,7-dihydro-1H-imidazo[4,5-c]pyridin-5(4H)-yl)(5-(6-methylpyridin-2-yl)-1,3,4-oxadiazol-2-yl)methanone] | > 5 µM
9 | Cn1ccc(-c2ccc3c(C(=O)N4CCc5[nH]cnc5[C@H]4c4cc5c(C(F)(F)F)cccn5n4)cnn3c2)n1 [Example 1596, (S)-(6-(1-methyl-1H-pyrazol-3-yl)pyrazolo[1,5-a]pyridin-3-yl)(4-(4-(trifluoromethyl)pyrazolo[1,5-a]pyridin-2-yl)-6,7-dihydro-1H-imidazo[4,5-c]pyridin-5(4H)-yl)methanone] | < 0.5 µM
10 | Cn1ccc(-c2ccc3c(C(=O)N4CCc5[nH]cnc5[C@@H]4c4cc5c(C(F)(F)F)cccn5n4)cnn3c2)n1 [Example 1597, (R)-(6-(1-methyl-1H-pyrazol-3-yl)pyrazolo[1,5-a)pyridin-3-yl)(4-(4-(trifluoromethyl)pyrazolo[1,5-a]pyridin-2-yl)-6,7-dihydro-1H-imidazo[4,5-c]pyridin-5(4H)-yl)methanone] | > 5 µM
11 | Cc1cccn2nc([C@@H]3c4nc[nH]c4CCN3C(=O)c3nnc(C4CC(F)(F)C4)o3)cc12 [Example 1598, (S)-(5-(3,3-difluorocyclobutyl)-1,3,4-oxadiazol-2-yl)(4-(4-methylpyrazolo[1,5-a]pyridin-2-yl)-6,7-dihydro-1H-imidazo[4,5-c]pyridin-5(4H)-yl)methanone] | 0.5 to 1 µM
12 | Cc1cccn2nc([C@H]3c4nc[nH]c4CCN3C(=O)c3nnc(C4CC(F)(F)C4)o3)cc12 [Example 1599, (R)-(5-(3,3-difluorocyclobutyl)-1,3,4-oxadiazol-2-yl)(4-(4-methylpyrazolo[1,5-a]pyridin-2-yl)-6,7-dihydro-1H-imidazo[4,5-c]pyridin-5(4H)-yl)methanone] | > 5 µM
13 | O=C(c1nnc(C2CC(F)(F)C2)o1)N1CCc2[nH]cnc2[C@H]1c1cc2c(C(F)(F)F)cccn2n1 [Example 1600, (S)-(5-(3,3-difluorocyclobutyl)-1,3,4-oxadiazol-2-yl)(4-(4-(trifluoromethyl)pyrazolo[1,5-a]pyridin-2-yl)-6,7-dihydro-1H-imidazo[4,5-c]pyridin-5(4H)-yl)methanone] | 0.5 to 1 µM
14 | O=C(c1nnc(C2CC(F)(F)C2)o1)N1CCc2[nH]cnc2[C@H]1c1cc2c(C(F)F)cccn2n1 [Example 1602, (S)-(5-(3,3-difluorocyclobutyl)-1,3,4-oxadiazol-2-yl)(4-(4-(difluoromethyl)pyrazolo[1,5-a]pyridin-2-yl)-6,7-dihydro-1H-imidazo[4,5-c]pyridin-5(4H)-yl)methanone] | 0.5 to 1 µM
15 | O=C(c1nnc(C2CC(F)(F)C2)o1)N1CCc2[nH]cnc2[C@H]1c1cc2c(F)cccn2n1 [Example 1604, (S)-(5-(3,3-difluorocyclobutyl)-1,3,4-oxadiazol-2-yl)(4-(4-fluoropyrazolo[1,5-a)pyridin-2-yl)-6,7-dihydro-1H-imidazo[4,5-c]pyridin-5(4H)-yl)methanone] | 0.5 to 1 µM
16 | O=C(c1nnc(C2CC(F)(F)C2)o1)N1CCc2[nH]cnc2[C@@H]1c1cc2c(F)cccn2n1 [Example 1605, (R)-(5-(3,3-difluorocyclobutyl)-1,3,4-oxadiazol-2-yl)(4-(4-fluoropyrazolo[1,5-a]pyridin-2-yl)-6,7-dihydro-1H-imidazo[4,5-c]pyridin-5(4H)-yl)methanone] | > 5 µM
17 | FC(F)c1cccn2nc([C@@H]3c4nc[nH]c4CCN3c3nnc(C4CC4)o3)cc12 [Example 1607, (S)-2-cyclopropyl-5-(4-(4-(difluoromethyl)pyrazolo[1,5-a]pyridin-2-yl)-6,7-dihydro-1H-imidazo[4,5-c]pyridin-5(4H)-yl)-1,3,4-oxadiazole] | 0.5 to 1 µM
18 | Cn1nccc1-c1nnc(C(=O)N2CCc3[nH]cnc3[C@H]2c2cc3cccc(C(F)F)n3n2)o1 [Example 1608, (S)-(4-(7-(difluoromethyl)pyrazolo[1,5-a]pyridin-2-yl)-6,7-dihydro-1H-imidazo[4,5-c]pyridin-5(4H)-yl)(5-(1-methyl-1H-pyrazol-5-yl)-1,3,4-oxadiazol-2-yl)methanone] | 0.5 to 1 µM
19 | Cn1nccc1-c1nnc(C(=O)N2CCc3[nH]cnc3[C@@H]2c2cc3cccc(C(F)F)n3n2)o1 [Example 1609, (R)-(4-(7-(difluoromethyl)pyrazolo[1,5-a]pyridin-2-yl)-6,7-dihydro-1H-imidazo[4,5-c]pyridin-5(4H)-yl)(5-(1-methyl-1H-pyrazol-5-yl)-1,3,4-oxadiazol-2-yl)methanone] | > 5 µM
20 | FC(F)(F)c1cccn2nc([C@@H]3c4nc[nH]c4CCN3c3nnc(-c4ccccn4)o3)cc12 [Example 1610, (S)-2-(pyridin-2-yl)-5-(4-(4-(trifluoromethyl)pyrazolo[1,5-a]pyridin-2-yl)-6,7-dihydro-1H-imidazo[4,5-c]pyridin-5(4H)-yl)-1,3,4-oxadiazole] | 0.5 to 1 µM
